Data reported in US20120004157A1, “HYDROXYPROLINE COMPOSITIONS AND USES THEREOF” (Bergen Teknologioverforing AS, priority 2007, published 2012).
“Also recorded” adds a separate entry of the source.

Key:
[1] = tested on: psoriasis; settings: Phase III psoriasis study, topical formulation; not statistically significant; cited from earlier work
[2] = tested on: Atlantic salmon (Salmo salar); assay: Subjective scoring of wounds on skin, damage on dorsal fin and loss of shells; type: in vivo; settings: scale from 0 (no damage) to 5 (severe damages), 88 days feeding, Diets 2-5 = 0.7, 1.4, 2.8, 5.6 gkg−1 added hydroxyproline, mean ± SD
Description: Wounds on skin, damages on dorsal fin and loss of shells were evaluated in the 10 salmons from each tank. The measure was subjectively based on a scale from 0 (no damage) to 5 (severe damages). The data and statistics are included in the table below (based on 110 measures) and shown in the figure based on average values for each tank). The statistics given are based on linear regression. […] (Table 3 and FIGS. 5, 6 and 7)

[3] = Retention of dietary hydroxyproline in fish; type: in vivo; settings: FIG. 1
Description: (§1) Trout were fed fish hydrolysate and fractions thereof to identify bioactive compounds (see Table 2).
The experiments where fish were fed a diet including varying levels of hydroxyproline were performed as described above.
The retention of hydroxyproline is statistically correlated to the dietary level. Low dietary levels (0.8 g per kg diet) give retention of close to 100% while higher dietary levels (>4.5 g per kg diet) gives retention of 20-30%.

[4] = Blood plasma levels of hydroxyproline in trout fed 90 days; type: in vivo; settings: for blood plasma levels of Hydroxyproline: trout fed for 90 days, FIG. 2
Description: as §1
The y axis is plasma levels in micromoles per 100 ml and the x-axis is the dietary level of component in g per kg diet.

[5] = tested on: Atlantic salmon (Salmo salar); assay: 88 days growth experiment, growth and feed performance; type: in vivo; settings: 88 days feeding
From the text: The diets used were composed such that they are equal in protein, lipid and energy, and designed to vary only in level of Hydroxyproline. The small amounts of Hydroxyproline added (L-4-Hydroksyproline, >99.0% pure, Fluka BioChemika. Sigma-Aldrich Chemie GmbH) were exchanged with fish meal, and the diets were otherwise adjusted with the content of raw wheat to secure equal chemical composition. Five different levels of Hydroxyproline were used in a regression design with two replicates for each level, except the diet without Hydroxyproline addition that was run in triplicate tanks. The levels used of hydroxyproline were 0, 0.7 gkg^−1, 1.4 gkg^−1, 2.8 gkg^−1 and 5.6 gkg^−1. As a negative control, Proline (L-Proline, (Hydroxy-L-Proline Free) Sigma grade, Sigma Chemical Company) was added to a level of 2.8 gkg^−1.
Atlantic salmon (Salmo salar) was obtained from Salmobreed May 2006. The fish was prevaccinated with Trippel Forte and was acclimated for 56 days before the trial started. The fish was given EWOS Opal Boost 50 3A, 3 mm pellets during this period. The fish was randomly distributed among 14 fiberglass tanks (1.5×1.5×1 m^3) with 80 fish per tank. Diet 1 and Diet 6 were run in triplicate tanks. Diet 2, Diet 3, Diet 4 and Diet 5 was run in duplicate tanks. Data are given also for a fish meal diet with no plant protein included. This diet was run simultaneously with fish of the same size, origin and treatment. This diet (Diet 7) was run in 2 m×2 m×1 m tanks in triplicate in a parallel experiment. The tanks were supplied with 75 I min^−1 of seawater taken from a depth of 50 m with average salinity of 3.2-3.3%. Water temperature was kept constant at 10.4±0.4° C. during the acclimatization and the experimental period, using a heat exchanger to adjust the sea water temperature. Throughout the experimental period of 88 days, the fish were exposed to 24 h artificial light. Great care was taken to reduce disturbance from the environment. Automatic feeders were used to add feed from 05.00 to 08.00 hrs and from 14.00 to 03.00 hrs. The level of feeding was regulated in such a way that offered feed was 110% of expected consumption based on daily monitoring of wasted feed. Uneaten feed was continuously removed by automatic collection and separated from feces using an Excess Fishfeed Collector (Holland Teknologi, Norway). Feed intake was measured daily as the difference between total feed given and total uneaten feed collected. Feed intake for the total experimental period was measured as the sum of the daily feed intakes, divided by feeding days and average fish weight during the experimental period; (start weight+final weight)/2. Feeding was sustained until the fish was sampled for analyses.
The six experimental diets were randomly assigned to the 14 tanks, with 3 replicate tanks for Diet 1 and Diet 6 and to duplicate tanks for the other experimental diets. Initial fish weights and lengths were recorded. Twenty fish representing the weight ranges were sampled, killed by a blow on the head, frozen and kept at −80° C. pending analyses of fish at start. Final weights were determined for each fish in all tanks. At the end of the feeding period, the fish were anaesthetized with Eugonol (iso-eugunol was diluted 1:1 with ethanol and the diluted solution was added 15 ml per m^3 water in the tanks). After about 15 min, 10 fish from each tank were sampled, killed by a blow in the head, gutted and weight of slaughtered fish, liver and viscera were noted. Five other fish from each tank were pooled and frozen for pending analyses.
The 88 days growth experiment was run successfully with a thermal growth coefficient (TGC) of 2.5 for the fish meal control diet. Some loss of fish occurred during the experimental period and some fish seemed not to develop normally. […]

[6] = added hydroxyproline gkg−1: Diet 2 0.7, Diet 3 1.4, Diet 4 2.8, Diet 5 5.6, mean ± SD
[7] = at 2.9 gkg−1 added Hydroxyproline

Row | SMILES | greater improvement in mean lesion scores in the treated group compared to placebos [1] | Damage on dorsal fin [2] | Loss of shells [2] | Wounds on skin [2] | retention of Hydroxyproline in the fish ([3]; higher dietary levels (>4.5 g per kg diet)) | retention of Hydroxyproline in the fish ([3]; low dietary levels (0.8 g per kg diet)) | dietary level above which the negative effects are eliminated ([4]; from retention, plasma and tissue data) | blood plasma levels of Hydroxyproline ([4]; dietary level 0.8 g per kg) | blood plasma levels of Hydroxyproline ([4]; dietary levels >4 g per kg) | nutritional requirement indicated by the growth curve [5] | Body weight at end, g [5, 6] | Weight gain, g/fish [5, 6] | increase of weight gain compared with no Hydroxyproline added (Diet 1) [5, 7] | weight gain at the maximum of the regression equation [5, 7] | added Hydroxyproline at maximum of the weight gain regression equation ([5]; polynomial regression, n=11) | SGR ([5]; specific growth rate, Diets 2-5 = 0.7, 1.4, 2.8, 5.6 gkg−1 added hydroxyproline, mean ± SD) | TGC ([5]; thermal growth coefficient, Diets 2-5 = 0.7, 1.4, 2.8, 5.6 gkg−1 added hydroxyproline, mean ± SD)
1 | Nc1nc2c(Cc3cccnc3)c[nH]c2c(=O)[nH]1 [BCX-34] | 14% |  |  |  |  |  |  |  |  |  |  |  |  |  |  |  | 
2 | O=C(O)[C@@H]1C[C@@H](O)CN1 [Hydroxyproline, L-4-Hydroksyproline] |  | lesser degree of damage to the dorsal fin | lower levels of fish scale loss | lesser degree of wounding | 20-30% | ~100% | 3-4 g per kg diet | much lower than previously known (normal values); also recorded: much lower than earlier published (normal values) | very high plasma levels | 2.5-3 g per kg diet | growth promoting effect | growth promoting effect | 14.0% | 155 g | 2.9 gkg−1 | growth promoting effect | growth promoting effect
